Data as given in patent US11964988B2, “Fused heterocyclic compounds as RET kinase inhibitors” (ARRAY BIOPHARMA INC., priority 2018, dated 2024).
Changes are numbered by the printed parent chain.

Experiments:
RET kinase V804M = RET kinase V804M (Homo sapiens, UniProt P07949, V804M); test: RET Enzyme Assay (CisBio HTRF KinEASE-TK), V804M; assay type: biochemical; conditions: read-out: RET V804M Enz FRET IC50
RET kinase Wild Type = RET kinase Wild Type (Homo sapiens, UniProt P07949); test: biochemical;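 note: HTRF kinase activity assay on RET enzyme, 1 h reaction at 22 °C, dual-wavelength readout as percent of control, DMSO-only wells as 100%, pre-quenched reactions as 0%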
Protocol: The potency of compounds inhibiting several different RET kinase forms (Wild Type, V804M, G810R, & G810S) were determined using CisBio's HTRF® KinEASE™-TK assay technology. […] After a 1 hour incubation at 22° C., the extent of reaction was determined using a PerkinElmer EnVision multimode plate reader via HTRF dual wavelength detection, and the percent of control (POC) was calculated using a ratiometric emission factor. One hundred POC was determined using DMSO only samples (no compound present), and 0 POC was determined using pre-quenched control reactions.

[1] = target: T1, HEK-293 cells expressing a Kif5b-RET fusion protein (Homo sapiens, UniProt P07949); test: RET Cell Assay (phospho-RET Tyr1062); assay type: cell-based; conditions: HEK-293 Kif5b-RET, 1 hour incubation, phospho-RET normalized to GAPDH; read-out: KIF5B-RET pTYR1062 Cell IC50
T1 construct: KIF5B (N-terminal portion incl. coiled-coil); expressed in transfected cells; host or cells: HEK-293; the other entry of the earlier key: KIF5B (P33176, Kinesin-1 heavy chain)
T1 sequence (P07949 713-1063 limits assumed): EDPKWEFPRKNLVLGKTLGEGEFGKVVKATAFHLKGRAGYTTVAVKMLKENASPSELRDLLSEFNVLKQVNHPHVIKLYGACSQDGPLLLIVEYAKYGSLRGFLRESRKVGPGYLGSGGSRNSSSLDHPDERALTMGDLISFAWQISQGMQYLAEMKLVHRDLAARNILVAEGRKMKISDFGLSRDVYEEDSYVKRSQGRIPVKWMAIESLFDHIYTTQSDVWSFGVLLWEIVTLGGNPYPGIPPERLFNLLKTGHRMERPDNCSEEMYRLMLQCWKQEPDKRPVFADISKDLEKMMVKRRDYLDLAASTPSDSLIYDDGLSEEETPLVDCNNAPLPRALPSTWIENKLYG
Protocol: (§1) The cellular potency of compounds inhibiting RET kinase were determined in HEK-293 cells expressing a Kif5b-RET fusion protein. Briefly, HEK-293 cells expressing a Kif5b-RET fusion protein were plated at 50K cells/well in 96 well poly-D-Lysine coated plates the day prior to the assay. The cells were incubated for 1 hour with test compound in DMEM (Dulbecco's Modified Eagle Medium) at a final DMSO concentration of 0.5%. […] After 1 hour the media was removed, the cells were fixed with 3.8% formaldehyde for 20 min, washed with PBS, and permeabilized for 10 min with 100% methanol. The plates were then washed with PBS-0.05% Tween20, and blocked with LI-COR Blocking solution (LI-COR Catalog No. 927-40000) for 1 hour. Plates were washed with PBS-0.05% Tween20, then incubated with anti-phospho-RET (Tyr1062) (Santa Cruz Catalog No. sc-20252-R) antibody and anti-GAPDH (Millipore Catalog No. MAB374) antibody for 2 hours. The plates were washed with PBS-0.05% Tween20, and incubated with anti-rabbit 680 (Molecular Probes Catalog No. A21109) and anti-mouse 800 (LI-COR Catalog No. 926-32210) secondary antibodies for 1 hour. All antibodies were diluted in LI-COR Block containing 0.05% Tween. The plates were washed with PBS-0.05% Tween20,100 μL PBS is added to each well, and the plates were read on a LI-COR Aerius fluorescent plate reader. The phospho-RET signal was normalized to the GAPDH signal. […] The POC values were fit to a 4 parameter logistic curve. The IC50 value is the point where the curve crosses 50 POC.

[2] = target: T2, HEK-293 cells expressing a G810S mutant RET Kif5b-RET fusion protein (Homo sapiens, UniProt P07949, G810S); test: RET G810S Mutant Cell Assay (phospho-RET Tyr1062); assay type: cell-based; conditions: HEK-293 Kif5b-RET G810S, 1 hour incubation, phospho-RET normalized to GAPDH
T2 construct: KIF5B (N-terminal portion incl. coiled-coil); expressed in transfected cells; host or cells: HEK-293
T2 sequence (P07949 713-1063 G810S limits assumed): T1 sequence (P07949 713-1063 limits assumed) with G98S
Protocol: as §1, with “expressing a G810R or G810S mutant RET Kif5b-RET fusion” for “expressing a Kif5b-RET fusion”, “μL PBS was added to” for “μL PBS is added to”, “POC values are fit to” for “POC values were fit to”

G810S mutant RET kinase = G810S mutant RET kinase (Homo sapiens, UniProt P07949, G810S); test: biochemical;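 note: HTRF KinEASE-TK kinase assay with recombinant enzyme, 1 h at 22 °C, dual-wavelength ratiometric read-out, percent of control (DMSO-only = 100, pre-quenched reaction = 0)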
G810R mutant RET kinase = G810R mutant RET kinase (Homo sapiens, UniProt P07949, G810R); test: biochemical;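 note: HTRF KinEASE-TK enzymatic assay with 1 nM recombinant RET G810R, 1 h at 22 °C, dual-wavelength ratiometric readout, 100% control without compound, 0% from pre-quenched reactions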
Sequence of G810R mutant RET kinase (P07949 29-1114 G810R): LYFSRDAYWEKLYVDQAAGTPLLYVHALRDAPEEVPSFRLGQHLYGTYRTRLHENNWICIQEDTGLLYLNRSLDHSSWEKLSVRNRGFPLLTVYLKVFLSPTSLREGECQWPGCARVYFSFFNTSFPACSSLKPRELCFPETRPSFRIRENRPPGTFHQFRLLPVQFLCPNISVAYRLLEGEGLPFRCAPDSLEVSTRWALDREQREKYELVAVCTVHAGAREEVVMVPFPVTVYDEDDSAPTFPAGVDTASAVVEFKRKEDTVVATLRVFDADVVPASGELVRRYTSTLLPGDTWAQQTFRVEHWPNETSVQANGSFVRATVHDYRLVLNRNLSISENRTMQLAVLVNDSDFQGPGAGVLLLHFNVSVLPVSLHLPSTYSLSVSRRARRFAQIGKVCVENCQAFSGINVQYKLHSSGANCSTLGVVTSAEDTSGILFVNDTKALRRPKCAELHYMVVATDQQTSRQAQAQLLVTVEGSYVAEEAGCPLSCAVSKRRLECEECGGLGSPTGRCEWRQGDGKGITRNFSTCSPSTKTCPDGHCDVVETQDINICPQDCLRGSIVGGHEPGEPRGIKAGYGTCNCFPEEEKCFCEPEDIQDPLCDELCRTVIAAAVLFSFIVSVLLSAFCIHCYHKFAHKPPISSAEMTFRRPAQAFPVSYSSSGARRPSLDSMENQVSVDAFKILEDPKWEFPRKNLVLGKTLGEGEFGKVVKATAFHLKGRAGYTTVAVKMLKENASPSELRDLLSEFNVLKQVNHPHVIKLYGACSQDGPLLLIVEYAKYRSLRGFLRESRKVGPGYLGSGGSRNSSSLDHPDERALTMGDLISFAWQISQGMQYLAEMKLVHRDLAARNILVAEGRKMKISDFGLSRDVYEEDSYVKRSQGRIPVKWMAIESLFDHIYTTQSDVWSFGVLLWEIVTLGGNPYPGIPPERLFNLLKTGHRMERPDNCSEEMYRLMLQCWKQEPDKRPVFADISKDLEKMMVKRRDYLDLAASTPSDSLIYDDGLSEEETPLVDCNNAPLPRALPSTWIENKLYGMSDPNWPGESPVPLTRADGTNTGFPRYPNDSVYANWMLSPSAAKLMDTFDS

Sequence of G810S mutant RET kinase (P07949 29-1114 G810S): as the sequence (P07949 29-1114 G810R) above, with R782S counted along it
Sequence of RET kinase V804M (P07949 29-1114 V804M): as the sequence (P07949 29-1114 G810R) above, with V776M, R782G counted along it
Sequence of RET kinase Wild Type (P07949 29-1114): as the sequence (P07949 29-1114 G810R) above, with R782G counted along it

SMILES | IC50 (RET kinase V804M) | IC50 (RET kinase Wild Type) | IC50 [1] | IC50 [2] | IC50 (G810S mutant RET kinase) | IC50 (G810R mutant RET kinase)
Nc1ncnc2c1c1c(n2C2CCC(O)C2)CCC(=O)c2c-1noc2C1CC1 (mixture of isomers) [Example 128, 11-Amino-3-cyclopropyl-7-(3-hydroxycyclopentyl)-6,7-dihydroisoxazolo[4″,3″:6′,7′]cyclohepta[1′,2′:4,5]pyrrolo[2,3-d]pyrimidin-4(5H)-one 2,2,2-trifluoroacetate] | 349 nM | 88 nM | 157 nM | 435 nM | 160 nM | 98 nM
CC(C)n1c2c(c3c(N)ncnc31)-c1cc3ccc(C(=O)Nc4ccn(-c5ccccc5)n4)cc3n1CCC2 [Example 100, 1-amino-5-isopropyl-N-(1-phenyl-1H-pyrazol-3-yl)-5,6,7,8-tetrahydropyrimido[5″,4″:4′,5′]pyrrolo[3′,2′: 3,4]azepino[1,2-a]indole-11-carboxamide] | 2860 nM | 233 nM | 10 nM | 15 nM | 914 nM | 1610 nM
CC(C)n1c2c(c3c(N)ncnc31)-c1c(Cl)c3ccc(C(=O)NC4CC4)cc3n1CCC2 [Example 102, 1-Amino-14-chloro-N-cyclopropyl-5-isopropyl-5,6,7,8-tetrahydropyrimido[5″,4″:4′,5′]pyrrolo[3′,2′:3,4]azepino[1,2-a]indole-11-carboxamide] | 483 nM | 128 nM | 35 nM | 86 nM | 183 nM | 760 nM
COC(=O)c1ccc(-n2c3c(c4c(N)ncnc42)-c2noc(C4CC4)c2C(O)CC3)cc1 (stereo not drawn) [Example 113, Methyl 4-(11-amino-3-cyclopropyl-4-hydroxy-5,6-dihydroisoxazolo[4″,3″:6′,7′]cyclohepta[1′,2′:4,5]pyrrolo[2,3-d]pyrimidin-7(4H)-yl)benzoate 2,2,2-trifluoroacetate] | 169 nM | 102 nM | 513 nM | 274 nM | 63 nM | 106 nM
Nc1ncnc2c1c1c(n2C2CCOC2)CCC(O)c2c-1noc2C1CC1 (stereo not drawn) [Example 121, 11-amino-3-cyclopropyl-7-(tetrahydrofuran-3-yl)-4,5,6,7-tetrahydro-isoxazolo[4″,3″:6′,7′]cyclohepta[1′,2′:4,5] pyrrolo[2,3-d]pyrimidin-4-ol] | 120 nM | 41 nM | 74 nM | 118 nM | 84 nM | 87 nM
Nc1ncnc2c1c1c(n2C(CF)CF)CCC(O)c2c-1noc2C1CC1 (stereo not drawn) [Example 122, 11-amino-3-cyclopropyl-7-(1,3-difluoropropan-2-yl)-4,5,6,7-tetrahydro-isoxazolo[4″,3″:6′,7′]cyclohepta[1′,2′:4,5] pyrrolo[2,3-d]pyrimidin-4-ol] | 38 nM | 14 nM | 31 nM | 77 nM | 26 nM | 28 nM
Nc1ncnc2c1c1c(n2[C@@H]2C[C@@H](O)[C@@H](O)C2)CCC(O)c2c-1noc2C1CC1 (stereo partly drawn) [Example 130, (1r,2s,4s)-4-(11-amino-3-cyclopropyl-4-hydroxy-5,6-dihydroisoxazolo[4″,3″:6′,7′]cyclohepta[1′,2′:4,5]pyrrolo[2,3-d]pyrimidin-7(4H)-yl)cyclopentane-1,2-diol] | 64 nM | 12 nM | 34 nM | 131 nM | 32 nM | 40 nM
Nc1ncnc2c1c1c(n2[C@H]2C[C@H](CO)C2)CCC(O)c2c-1noc2C1CC1 (stereo partly drawn) [Example 135, 11-Amino-3-cyclopropyl-7-((1r,3r)-3-(hydroxymethyl)cyclobutyl)-4,5,6,7-tetrahydroisoxazolo[4″,3″:6′,7′]cyclohepta[1′,2′:4,5]pyrrolo[2,3-d]pyrimidin-4-ol 2,2,2-trifluoroacetate] | 152 nM | 45 nM | 54 nM | 103 nM | 229 nM | 150 nM
COC(=O)[C@H]1C[C@@H](n2c3c(c4c(N)ncnc42)-c2noc(C4CC4)c2C(O)CC3)C1 (stereo partly drawn) [Example 137, Methyl (1s,3s)-3-(11-amino-3-cyclopropyl-4-hydroxy-5,6-dihydroisoxazolo[4″,3″:6′,7′]cyclohepta[1′,2′:4,5]pyrrolo[2,3-d]pyrimidin-7(4H)-yl)cyclobutane-1-carboxylate 2,2,2-trifluoroacetate] | 60 nM | 38 nM | 67 nM | 280 nM | 155 nM | 52 nM
Nc1ncnc2c1c1c(n2C2CCC2)CCC(O)c2c-1noc2C1CC1 (stereo not drawn) [Example 144, 11-Amino-7-cyclobutyl-3-cyclopropyl-4,5,6,7-tetrahydroisoxazolo[4″,3″:6′,7]cyclohepta[1′,2′:4,5]pyrrolo[2,3-d]pyrimidin-4-ol 2,2,2-trifluoroacetate] | 57 nM | 24 nM | 40 nM | 177 nM | 101 nM | 61 nM
CC1(n2c3c(c4c(N)ncnc42)-c2noc(C4CC4)c2C(O)CC3)CC1 (stereo not drawn) [Example 149, 11-Amino-3-cyclopropyl-7-(1-methylcyclopropyl)-4,5,6,7-tetrahydroisoxazolo[4″,3″:6′,7′]cyclohepta[1′,2′:4,5]pyrrolo[2,3-d]pyrimidin-4-ol] | 22 nM | 7 nM | 2 nM | 20 nM | 41 nM | 70 nM
